Measurements reported in ChEMBL document CHEMBL1833912, “Discovery of PF-184563, a potent and selective V1a antagonist for the treatment of dysmenorrhoea. The influence of compound flexibility on microsomal stability” (Bioorg Med Chem Lett, 2011).

Assays:
Type in all cases: ADME, organism-based
Settings in all cases: in vivo
[1] = Tmax in Sprague-Dawley rat at 2 mg/kg, iv and po; set-up: dose 2 mg/kg, route oral
[2] = Cmax in Sprague-Dawley rat at 2 mg/kg, iv and po; set-up: dose 2 mg/kg, route oral
[3] = Bioavailability in Sprague-Dawley rat at 2 mg/kg, iv and po
[4] = system: Rattus norvegicus; experiment: Volume of distribution in Sprague-Dawley rat at 2 mg/kg, iv and po; set-up: dose 2 mg/kg, route oral

CN1Cc2cc(Cl)ccc2-n2c(nnc2C2CCN(c3ccccn3)CC2)C1
Tmax [1]: 48 min | Cmax [2]: 97 ng/mL | bioavailability [3]: 34% | Vd [4]: 2.7 L/kg
